Reference: patent US11279768B1, “Anti-cancer antibodies, combination therapies, and uses thereof” (PRECISION BIOLOGICS, INC., priority 2015, dated 2022)

Legend:
uterus cancer samples = assay: Immunohistochemistry, cancer tissue microarray, uterus; type: binding
Text: (§1) FIG. 2. Immunohistochemistry results from cancer tissue arrays. Immunohistochemistry method (IHC) was used for determining the presence of NEO-101/102, NEO-201 and NEO-301 antigens on paraffin microarrays and tissues. These primary antibodies (NEO-101/NEO-102, NEO-201 and NEO-301) were biotinylated prior to use. Paraffin tissue Microarrays and slides of tissues were reacted with the primary Ab after inactivating endogenous peroxidase and blocking the slides. Staining was detected with streptavidin-horseradish peroxidase conjugate and visualized with chromogen. Biotinylated human IgG1 was used as negative control and mouse anti-human cytokeratin monoclonal antibody was used as positive control. Antibody staining is measured as % and intensity of tumor epithelial cells and luminal secretion within the whole tissue section.
(§2) Immunohistochemistry (IHC) was used for determining the presence of NEO-101/102, NEO-201 and NEO-301 antigens on paraffin microarrays and tissues. These primary antibodies (NEO-101/NEO-102, NEO-201 and NEO-301) were biotinylated prior to use. […] Staining was detected with streptavidin-horseradish peroxidase conjugate and visualized with chromogen. […] Antibody staining was measured as % and intensity of tumor epithelial cells and luminal secretion within the whole tissue section. […]

[1] = tested on: lung adenocarcinoma cells; assay: Antigen expression by Flow Cytometry, lung adenocarcinoma cell lines; type: binding, Human; conditions: multiple lung adenocarcinoma cell lines; primary antibody 10 ug/mL
Protocol: (§3) FIG. 1. NEO-101, NEO-201 and NEO-301 Antigen Expression by Human Normal and Cancer Cell Lines. NEO-101, NEO-201 and NEO-301 specific antigen expression in various cell lines were detected by Flow Cytometry. Viable cell suspensions were incubated with primary antibody NEO-101, NEO-201 and NEO-301 separately at 10 ug/mL. Human IgG (10 ug/mL) was used as negative control. Goat anti-human IgG (Fc)-phycoerythrin conjugate was used for primary antibody detection; 7-ADD was used for excluding dead cells from analysis. The staining was measured by Flow Cytometry (Guava instrument, Millipore). Median fluorescent intensity (MFI) and % of stained cells was used for determining presence of specific antigen on each cell line.
(§4) Antigen expression in cell lines of various origins were detected by Flow Cytometry. Viable cell suspensions were incubated with primary antibody NEO-101, NEO-201 and NEO-301 separately at 10 ug/mL. Human IgG (10 ug/mL) was used as negative control. Goat anti-human IgG (Fc)-phycoerythrin conjugate was used for primary antibody detection; 7-ADD was used for excluding dead cells from analysis. The staining was measured by Flow Cytometry (Guava instrument, Millipore). Median fluorescent intensity (MFI) and % of stained cells was used for determining presence of specific antigen on each cell line. […]

lung cancer samples [2] = assay: Immunohistochemistry, paraffin tissue sections, lung; type: binding
Text: as §1, §2

[3] = tested on: pancreatic cancer samples; assay: Immunohistochemistry, paraffin tissue sections, pancreas; type: binding
Text: as §1, §2

colon cancer samples [4] = assay: Immunohistochemistry, paraffin tissue sections, colon; type: binding
Text: as §1, §2

lung cancer samples [5] = assay: Immunohistochemistry, cancer tissue microarray, lung; type: binding
Text: as §1, §2

[6] = tested on: pancreatic cancer samples; assay: Immunohistochemistry, cancer tissue microarray, pancreas; type: binding
Text: as §1, §2

colon cancer samples [7] = assay: Immunohistochemistry, cancer tissue microarray, colon; type: binding
Text: as §1, §2

[8] = tested on: colorectal adenocarcinoma cells; assay: Antigen expression by Flow Cytometry, colorectal adenocarcinoma cell lines; type: binding, Human; conditions: multiple colorectal adenocarcinoma cell lines; primary antibody 10 ug/mL
Protocol: as §3, §4

skin cancer samples = assay: Immunohistochemistry, cancer tissue microarray, skin; type: binding
Text: as §1, §2

[9] = tested on: lung squamous carcinoma cells; assay: Antigen expression by Flow Cytometry, lung squamous cell carcinoma cell lines; type: binding, Human; conditions: multiple lung squamous cell carcinoma cell lines; primary antibody 10 ug/mL
Protocol: as §3, §4

[10] = tested on: pancreatic adenocarcinoma cells; assay: Antigen expression by Flow Cytometry, pancreatic adenocarcinoma cell lines; type: binding, Human; conditions: primary antibody 10 ug/mL
Protocol: as §3, §4

stomach cancer samples = assay: Immunohistochemistry, cancer tissue microarray, stomach; type: binding
Text: as §1, §2

“NEO-201: Humanized 16C3 antibody; binds epitopes in CEACAM5 and CEACAM6” was tested, and the “cancer samples positive for the antigen (IHC)” value (“cancer samples positive” for short) (uterus cancer samples) was 51%, the “antigen expression detected by Flow Cytometry” value (“antigen expression detected” below) [1] was “detected” and the “cancer samples positive” value (lung cancer samples [2]) was 90%. For the same molecule, the “cancer samples positive” value [3] was 83%, the “cancer samples positive” value (colon cancer samples [4]) was 94% and the “cancer samples positive” value (lung cancer samples [5]) was 61%. For the same molecule, the “cancer samples positive” value [6] was 86%, the “cancer samples positive” value (colon cancer samples [7]) was 85% and the “antigen expression detected” value [8] was “detected”. For the same molecule, the “cancer samples positive” value (skin cancer samples) was 16%, the “antigen expression detected” value [9] was “detected” and the “antigen expression detected” value [10] was “detected”.

B1: NEO-101: Chimeric NPC-1 antibody, engineered in CHO-DG44 production cell clone 4B7; targets a variant of MUC5AC (protein)
light: MDFQVQIFSFLLISASVILSRGQVVLTQSPVIMSASPGEKVTMTCSASSSISYMYWYQQKPGTSPKRWIYDTSKLASGVPARFSGSGSGTSYSLTISNMEAGDAATYYCHQRDSYPWTFGGGTNLEIKRADAAPTVSIFPPSSEQLTSGGASVVCFLNNFYPKDINVKWKIDGSERQNGVLNSWTDQDSKDSTYSMSSTLTLTKDEYERHNSYTCEATHKTSTSPIVKSFNRNEC
heavy: MAVLALLLCLVTFPSCVLSQVQLKESGPDLVAPSQSLSITCTVSGFSLSKFGVNWVRQPPGKGLEWLGVIWGDGSTSYNSGLISRLSISKENSKSQVFLKLNSLQADDTATYYCVKPGGDYWGHGTSVTVSSAKTTPPSVYPLAPGSAAQTNSMVTLGCLVKGYFPEPVTVTWNSGSLSSGVHTFPAVLQSDLYTLSSSVTVPSSTWPSETVTCNVAHPASSTKVDKKIVPRDCGCKPCICTVPEVSSVFIFPPKPKDVLTITLTPKVTCVVVDISKDDPEVQFSWFVDDVEVHTAQTQPREEQFNSTFRSVSELPIMHQDWLNGKEFKCRVNSAAFPAPIEKTISKTKGRPKAPQVYTIPPPKEQMAKDKVSLTCMITDFFPEDITVEWQWNGQPAENYKNTQPIMDTDGSYFVYSKLNVQKSNWEAGNTFTCSVLHEGLHNHHTEKSLSHSPGK
modifications: NPC-1 antibody light chain; (46)..(55) CDR1; (71)..(77) CDR2; (110)..(118) CDR3; NPC-1 antibody heavy chain; (49)..(54) CDR1; (69)..(84) CDR2; (114)..(121) CDR3
notes: Chimeric NPC-1 antibody, engineered in CHO-DG44 production cell clone 4B7; targets a variant of MUC5AC
With B1 the “cancer samples positive” value (uterus cancer samples) was 41%, the “cancer samples positive” value (lung cancer samples [2]) was 67% and the “cancer samples positive” value [3] was 82%. For the same molecule, the “cancer samples positive” value (colon cancer samples [4]) was 87%, the “cancer samples positive” value [6] was 31% and the “cancer samples positive” value (colon cancer samples [7]) was 61%. The “antigen expression detected” value [8] was “detected”, the “antigen expression detected” value [10] was “detected” and the “cancer samples positive” value (stomach cancer samples) was 30%.
